# From patent US11739111B2, “Manufacture of trans-[tetrachlorobis(1H-indazole)ruthenate (III)] and compositions thereof” (Bold Therapeutics, Inc., priority 2017, dated 2023)
# Values joined by “and” are separate entries in the source; they are usually repeats but may differ in a detail not shown here. Identical values can stand only once.
# Tests used:
# Format in all cases: physicochemical
# [1] = Stability of Formula I-b in chloride-containing solutions versus pure water (aquation to Compound A); settings: sodium chloride or hydrochloric acid solutions compared with pure water
# [2] = Solution stability study of IT-139 bulk solution (HPLC peak area over time); settings: for % Peak Area Unspecified: impurities; for % Peak Area RRT 1.09 / % Peak Area RRT 1.28: impurity
# Method: HPLC Method 1 Assay and identity of sodium trans-[tetrachlorobis(1H-indazole) ruthenate (III)] was determined by high pressure liquid chromatography with UV detection at 292 nm. IT-139 drug product was dissolved in water at concentration of 1 mg/mL, and 10 μL was injected onto an Agilent Zorbax SB-C18 (3 μm, 4.6×150 mm) HPLC column. Mobile phase A consisted of 0.1% trifluoroacetic acid in water and mobile phase B consisted of 0.1% trifluoroacetic acid in acetonitrile. Separation was achieved by gradient flow at 1.0 mL/minute such that mobile phase A constituting from 90% to 10% from time zero to 12 minutes, with mobile phase B constituting from 10% to 90% over 12 minutes. The gradient was then reversed from 10% mobile phase A and 90% mobile phase B to 90% A and 10% B from 12 minutes to 13 minutes. This continued until the end of the run at 15 minutes. The analyte retention time was 7.7 minutes. Sample temperature was maintained at 5° C., and column temperature was maintained at 25° C.
# HPLC Method 2 Two HPLC methods are used because two different impurities co-elute using HPLC Method 1. Related substances for IT-139 drug product were determined by high pressure liquid chromatography with UV detection at 292 nm. IT-139 drug product was dissolved in water at concentration of 1 mg/mL, and 10 μL was injected onto an Agilent Zorbax SB-C18 (3 μm, 4.6×150 mm) HPLC column. Mobile phase A consisted of 0.1% trifluoroacetic acid in water and mobile phase B consisted of 0.1% trifluoroacetic acid in acetonitrile. Separation was achieved by gradient flow at 1.0 mL/minute such that mobile phase A constituted from 90% to 10% from time zero to 15 minutes, with mobile phase B constituted from 10% to 90% over 15 minutes. The gradient was held at 10% A and 90% B from 15 minutes to 19.9 minutes. The gradient was then reversed to 90% A and 10% B from 19.9 minutes to 20 minutes, and was held until the end of the run at 26 minutes. Sample temperature was maintained at 5° C., and column temperature was maintained at 25° C.
# Compound from Example 5 was prepared at room temperature (20° C.) using room temperature solutions, and refrigerated (2-8° C.) using cold (2-8° C.) solutions, for a total volume of 500 mL for each. Citric acid solution was prepared by dissolving 19.2 grams of citric acid in 1 L of water. Sodium citrate solution was prepared by dissolving 29.4 grams of sodium citrate in 1 L of water. Sodium citrate solution was added to the citric acid solution until the pH was increased from 2.0 to 3.4. Mannitol solution was prepared by dissolving 13.3 g in 200 mL of water. Solutions of Formula I-b were prepared by adding 16.6 mL of citrate buffer to 400 mL water. 3.33 g sodium trans[tetrachlorobis(1H-indazole)ruthenate(III)] was added to the solution and stirred for 10 minutes. 50 mL of mannitol solution was added followed by 33.4 mL of water for a final volume of 500 mL IT-139 bulk solution. The room temperature (18-22° C.) sample was stirred using a magnetic stir plate on the laboratory bench, and the refrigerated sample was stirred using a magnetic stir plate in a refrigerator (2-8° C.). Aliquots of 100 μL were taken from each sample immediately upon dissolution (T=0) and at time points of 0.5, 1, 2, 3, 4, 5, 6, 18, 24, 32, and 48 hours. Each sample was added to 1.9 mL methanol in an HPLC vial and mixed by vortex. […] HPLC chromatograms for IT-139 samples stored refrigerated or at room temperature at the 18 hour time point are shown in FIG. 2 and FIG. 3, respectively.
# [3] = Stability of the isolated cesium intermediate as dry powder; settings: ambient conditions
# From the text: Another aspect of the invention is the introduction of step S-2 into the preparation of Formula I-b. Step S-2 involves the preparation of a cesium intermediate, Formula I-a. […] As stated above, indazolium trans-[tetrachlorobis(1H-indazole)ruthenate (III)] is isolated by filtration as what can best be described as a mud-like substance. The stability of this compound is improved by the presence of hydrochloric acid (chloride ions). Washing the filtrate with polar solvents (e.g. methanol) also lead to degradation. Therefore, the best practice is to prepare the indazolium trans-[tetrachlorobis(1H-indazole)ruthenate (III)], isolate by filtration, and use directly for S-2 without delay. S-2 consists of mixing indazolium trans-[tetrachlorobis(1H-indazole)ruthenate (III)] and cesium chloride in a suitable solvent. Suitable solvents can be alcohol with 1 to 5 carbon atoms, a diol with 2-4 carbon atoms, water, ketones with […], cyclic ethers containing 4 to 7 carbon atoms, amides with 1 to 4 carbon atoms, DMSO, sulfolane, esters with 4 to 6 carbon atoms, chlorinated hydrocarbons with 1 or 2 carbon atoms, liquid aromatic hydrocarbons, nitriles with 2-6 carbon atoms, or mixture of thereof.
# [4] = 20° C. (room temperature), 0.5 h
# [5] = 20° C. (room temperature), 18 h
smiles,measurement,setting,value
"[Cl][Ru-]([Cl])([Cl])[Cl].[Na+].c1ccc2[nH]ncc2c1.c1ccc2[nH]ncc2c1 [Formula I-b, sodium trans-[tetrachlorobis(1H-indazole)ruthenate (III)]]",stability in solution,[1],much more stable
same,% Peak Area RT 7.7 min,"[2]; 4° C. (refrigerated), 0 h",97.05% and 97.1%
same,% Peak Area RT 7.7 min,"[2]; 4° C. (refrigerated), 0.5 h",97.3%
same,% Peak Area RT 7.7 min,"[2]; 4° C. (refrigerated), 1 h",97.0%
same,% Peak Area RT 7.7 min,"[2]; 4° C. (refrigerated), 2 h",97.0%
same,% Peak Area RT 7.7 min,"[2]; 4° C. (refrigerated), 3 h",96.8%
same,% Peak Area RT 7.7 min,"[2]; 4° C. (refrigerated), 4 h",96.5%
same,% Peak Area RT 7.7 min,"[2]; 4° C. (refrigerated), 5 h",96.6%
same,% Peak Area RT 7.7 min,"[2]; 4° C. (refrigerated), 6 h",96.8%
same,% Peak Area RT 7.7 min,"[2]; 4° C. (refrigerated), 18 h",95.4%
same,% Peak Area RT 7.7 min,"[2]; 4° C. (refrigerated), 24 h",94.8%
same,% Peak Area RT 7.7 min,"[2]; 4° C. (refrigerated), 32 h",94.9%
same,% Peak Area RT 7.7 min,"[2]; 4° C. (refrigerated), 48 h",89.8%
same,% Peak Area RT 7.7 min,"[2]; 20° C. (room temperature), 0 h",96.8%
same,% Peak Area RT 7.7 min,[2]; [4],96.8%
same,% Peak Area RT 7.7 min,"[2]; 20° C. (room temperature), 1 h",96.5%
same,% Peak Area RT 7.7 min,"[2]; 20° C. (room temperature), 2 h",96.3%
same,% Peak Area RT 7.7 min,"[2]; 20° C. (room temperature), 3 h",95.9%
same,% Peak Area RT 7.7 min,"[2]; 20° C. (room temperature), 4 h",95.4%
same,% Peak Area RT 7.7 min,"[2]; 20° C. (room temperature), 5 h",94.9%
same,% Peak Area RT 7.7 min,"[2]; 20° C. (room temperature), 6 h",94.0%
same,% Peak Area RT 7.7 min,[2]; [5],12.1%
same,% Peak Area Unspecified,"[2]; 4° C. (refrigerated), 0 h",<0.1%
same,% Peak Area Unspecified,"[2]; 4° C. (refrigerated), 0.5 h",<0.1%
same,% Peak Area Unspecified,"[2]; 4° C. (refrigerated), 1 h",<0.1%
same,% Peak Area Unspecified,"[2]; 4° C. (refrigerated), 2 h",0.14%
same,% Peak Area Unspecified,"[2]; 4° C. (refrigerated), 3 h",0.16%
same,% Peak Area Unspecified,"[2]; 4° C. (refrigerated), 4 h",0.26%
same,% Peak Area Unspecified,"[2]; 4° C. (refrigerated), 5 h",<0.1%
same,% Peak Area Unspecified,"[2]; 4° C. (refrigerated), 6 h",<0.1%
same,% Peak Area Unspecified,"[2]; 4° C. (refrigerated), 18 h",0.11%
same,% Peak Area Unspecified,"[2]; 4° C. (refrigerated), 24 h",<0.1%
same,% Peak Area Unspecified,"[2]; 4° C. (refrigerated), 32 h",<0.1%
same,% Peak Area Unspecified,"[2]; 4° C. (refrigerated), 48 h",<0.1%
same,% Peak Area Unspecified,"[2]; 20° C. (room temperature), 0 h",<0.1%
same,% Peak Area Unspecified,[2]; [4],<0.1%
same,% Peak Area Unspecified,"[2]; 20° C. (room temperature), 1 h",<0.1%
same,% Peak Area Unspecified,"[2]; 20° C. (room temperature), 2 h",0.13%
same,% Peak Area Unspecified,"[2]; 20° C. (room temperature), 3 h",0.16%
same,% Peak Area Unspecified,"[2]; 20° C. (room temperature), 4 h",0.25%
same,% Peak Area Unspecified,"[2]; 20° C. (room temperature), 5 h",0.26%
same,% Peak Area Unspecified,"[2]; 20° C. (room temperature), 6 h",0.13%
same,% Peak Area Unspecified,[2]; [5],1.82%
same,% Peak Area RRT 1.09,"[2]; 4° C. (refrigerated), 0 h",0.96%
same,% Peak Area RRT 1.28,"[2]; 4° C. (refrigerated), 0 h",1.91%
same,% Peak Area RRT 1.09,"[2]; 4° C. (refrigerated), 0.5 h",0.96%
same,% Peak Area RRT 1.28,"[2]; 4° C. (refrigerated), 0.5 h",1.7%
same,% Peak Area RRT 1.09,"[2]; 4° C. (refrigerated), 1 h",1.03%
same,% Peak Area RRT 1.28,"[2]; 4° C. (refrigerated), 1 h",1.9%
same,% Peak Area RRT 1.09,"[2]; 4° C. (refrigerated), 2 h",1.04%
same,% Peak Area RRT 1.28,"[2]; 4° C. (refrigerated), 2 h",1.86%
same,% Peak Area RRT 1.09,"[2]; 4° C. (refrigerated), 3 h",1.07%
same,% Peak Area RRT 1.28,"[2]; 4° C. (refrigerated), 3 h",0.94%
same,% Peak Area RRT 1.09,"[2]; 4° C. (refrigerated), 4 h",1.13%
same,% Peak Area RRT 1.28,"[2]; 4° C. (refrigerated), 4 h",2.14%
same,% Peak Area RRT 1.09,"[2]; 4° C. (refrigerated), 5 h",1.11%
same,% Peak Area RRT 1.28,"[2]; 4° C. (refrigerated), 5 h",2.2%
same,% Peak Area RRT 1.09,"[2]; 4° C. (refrigerated), 6 h",1.09%
same,% Peak Area RRT 1.28,"[2]; 4° C. (refrigerated), 6 h",2.07%
same,% Peak Area RRT 1.09,"[2]; 4° C. (refrigerated), 18 h",1.45%
same,% Peak Area RRT 1.28,"[2]; 4° C. (refrigerated), 18 h",3.07%
same,% Peak Area RRT 1.09,"[2]; 4° C. (refrigerated), 24 h",1.34%
same,% Peak Area RRT 1.28,"[2]; 4° C. (refrigerated), 24 h",3.76%
same,% Peak Area RRT 1.09,"[2]; 4° C. (refrigerated), 32 h",1.33%
same,% Peak Area RRT 1.28,"[2]; 4° C. (refrigerated), 32 h",3.65%
same,% Peak Area RRT 1.09,"[2]; 4° C. (refrigerated), 48 h",2.39%
same,% Peak Area RRT 1.28,"[2]; 4° C. (refrigerated), 48 h",7.56%
same,% Peak Area RRT 1.09,"[2]; 20° C. (room temperature), 0 h",0.88%
same,% Peak Area RRT 1.28,"[2]; 20° C. (room temperature), 0 h",2.26%
same,% Peak Area RRT 1.09,[2]; [4],1.08%
same,% Peak Area RRT 1.28,[2]; [4],2.07%
same,% Peak Area RRT 1.09,"[2]; 20° C. (room temperature), 1 h",1.14%
same,% Peak Area RRT 1.28,"[2]; 20° C. (room temperature), 1 h",2.28%
same,% Peak Area RRT 1.09,"[2]; 20° C. (room temperature), 2 h",1.22%
same,% Peak Area RRT 1.28,"[2]; 20° C. (room temperature), 2 h",2.34%
same,% Peak Area RRT 1.09,"[2]; 20° C. (room temperature), 3 h",1.35%
same,% Peak Area RRT 1.28,"[2]; 20° C. (room temperature), 3 h",2.55%
same,% Peak Area RRT 1.09,"[2]; 20° C. (room temperature), 4 h",1.47%
same,% Peak Area RRT 1.28,"[2]; 20° C. (room temperature), 4 h",2.89%
same,% Peak Area RRT 1.09,"[2]; 20° C. (room temperature), 5 h",1.58%
same,% Peak Area RRT 1.28,"[2]; 20° C. (room temperature), 5 h",3.27%
same,% Peak Area RRT 1.09,"[2]; 20° C. (room temperature), 6 h",1.88%
same,% Peak Area RRT 1.28,"[2]; 20° C. (room temperature), 6 h",4%
same,% Peak Area RRT 1.09,[2]; [5],25.2%
same,% Peak Area RRT 1.28,[2]; [5],60.87%
"[Cl][Ru-3]([Cl])([Cl])([Cl])([n+]1cc2ccccc2[nH]1)[n+]1cc2ccccc2[nH]1.[Cs+] [Formula I-a, cesium trans-[tetrachlorobis(1H-indazole)ruthenate (III)]]",stability of the dry powder,[3],stable at ambient conditions
